This is an account of results in patent publication US9932325B2 (Denali Therapeutics Inc., priority 2015, dated 2018).

The term pIC50 denotes the IC50 on a negative log10 scale, so that one unit is a factor of ten. A higher pIC50 goes with a low IC50.

The test addresses LRRK2 G2019S enzyme (Homo sapiens (Human), UniProt Q5S007, G2019S). The test is described as follows: LRRK2 G2019S TR-FRET biochemical assay (LRRKtide substrate). As to conditions: 134 μM ATP. As for the experimental part:
Detection Reaction Conditions • 1× TR-FRET dilution buffer • 10 mM EDTA • 2 nM antibody • 23° C. reaction temperature • 10 μL total reaction volume
Compounds were prepared by initially diluting to 1 mM with DMSO. 35 μL of reference compound solution, 35 μL of test compound solution, and 35 μL HPE were successively added to the source plate (384-well assay plate, Labcyte). The plates were centrifuged at 2500 rpm for 1 minute and sealed in foil. […] The assay plate was centrifuged at 2500 rpm for 1 minute, and sealed with foil.
To perform the enzyme reaction, 5 μL of LRRKtide substrate and kinase mixture in assay buffer was added to all wells of the assay plate. The plate was centrifuged to concentrate the mixture at the bottom of the wells. The assay plate was incubated at 23° C. for 20 minutes. Following incubation, 5 μL of 2× ATP in assay buffer was added to each well, and plates were centrifuged to concentrate the mixture at the bottom of the wells. The plate was incubated at 23° C. for 60 minutes.
To perform the detection of the reaction, EDTA completely mixed in TR-FRET dilution buffer was added to antibody reagent. 10 μL of detection reagent was added to all wells of each well of the assay plate and the plate was centrifuged to concentrate the mixture at the bottom of the wells. The plate was then incubated at 23° C. for 60 minutes.

pIC50: −log10 of the molar value. Values joined by “and” are separate entries in the source; they are usually repeats but may differ in a detail not shown here. Equal values may be shown once.

LRRK2 G2019S enzyme, sequence (Q5S007 whole entry G2019S): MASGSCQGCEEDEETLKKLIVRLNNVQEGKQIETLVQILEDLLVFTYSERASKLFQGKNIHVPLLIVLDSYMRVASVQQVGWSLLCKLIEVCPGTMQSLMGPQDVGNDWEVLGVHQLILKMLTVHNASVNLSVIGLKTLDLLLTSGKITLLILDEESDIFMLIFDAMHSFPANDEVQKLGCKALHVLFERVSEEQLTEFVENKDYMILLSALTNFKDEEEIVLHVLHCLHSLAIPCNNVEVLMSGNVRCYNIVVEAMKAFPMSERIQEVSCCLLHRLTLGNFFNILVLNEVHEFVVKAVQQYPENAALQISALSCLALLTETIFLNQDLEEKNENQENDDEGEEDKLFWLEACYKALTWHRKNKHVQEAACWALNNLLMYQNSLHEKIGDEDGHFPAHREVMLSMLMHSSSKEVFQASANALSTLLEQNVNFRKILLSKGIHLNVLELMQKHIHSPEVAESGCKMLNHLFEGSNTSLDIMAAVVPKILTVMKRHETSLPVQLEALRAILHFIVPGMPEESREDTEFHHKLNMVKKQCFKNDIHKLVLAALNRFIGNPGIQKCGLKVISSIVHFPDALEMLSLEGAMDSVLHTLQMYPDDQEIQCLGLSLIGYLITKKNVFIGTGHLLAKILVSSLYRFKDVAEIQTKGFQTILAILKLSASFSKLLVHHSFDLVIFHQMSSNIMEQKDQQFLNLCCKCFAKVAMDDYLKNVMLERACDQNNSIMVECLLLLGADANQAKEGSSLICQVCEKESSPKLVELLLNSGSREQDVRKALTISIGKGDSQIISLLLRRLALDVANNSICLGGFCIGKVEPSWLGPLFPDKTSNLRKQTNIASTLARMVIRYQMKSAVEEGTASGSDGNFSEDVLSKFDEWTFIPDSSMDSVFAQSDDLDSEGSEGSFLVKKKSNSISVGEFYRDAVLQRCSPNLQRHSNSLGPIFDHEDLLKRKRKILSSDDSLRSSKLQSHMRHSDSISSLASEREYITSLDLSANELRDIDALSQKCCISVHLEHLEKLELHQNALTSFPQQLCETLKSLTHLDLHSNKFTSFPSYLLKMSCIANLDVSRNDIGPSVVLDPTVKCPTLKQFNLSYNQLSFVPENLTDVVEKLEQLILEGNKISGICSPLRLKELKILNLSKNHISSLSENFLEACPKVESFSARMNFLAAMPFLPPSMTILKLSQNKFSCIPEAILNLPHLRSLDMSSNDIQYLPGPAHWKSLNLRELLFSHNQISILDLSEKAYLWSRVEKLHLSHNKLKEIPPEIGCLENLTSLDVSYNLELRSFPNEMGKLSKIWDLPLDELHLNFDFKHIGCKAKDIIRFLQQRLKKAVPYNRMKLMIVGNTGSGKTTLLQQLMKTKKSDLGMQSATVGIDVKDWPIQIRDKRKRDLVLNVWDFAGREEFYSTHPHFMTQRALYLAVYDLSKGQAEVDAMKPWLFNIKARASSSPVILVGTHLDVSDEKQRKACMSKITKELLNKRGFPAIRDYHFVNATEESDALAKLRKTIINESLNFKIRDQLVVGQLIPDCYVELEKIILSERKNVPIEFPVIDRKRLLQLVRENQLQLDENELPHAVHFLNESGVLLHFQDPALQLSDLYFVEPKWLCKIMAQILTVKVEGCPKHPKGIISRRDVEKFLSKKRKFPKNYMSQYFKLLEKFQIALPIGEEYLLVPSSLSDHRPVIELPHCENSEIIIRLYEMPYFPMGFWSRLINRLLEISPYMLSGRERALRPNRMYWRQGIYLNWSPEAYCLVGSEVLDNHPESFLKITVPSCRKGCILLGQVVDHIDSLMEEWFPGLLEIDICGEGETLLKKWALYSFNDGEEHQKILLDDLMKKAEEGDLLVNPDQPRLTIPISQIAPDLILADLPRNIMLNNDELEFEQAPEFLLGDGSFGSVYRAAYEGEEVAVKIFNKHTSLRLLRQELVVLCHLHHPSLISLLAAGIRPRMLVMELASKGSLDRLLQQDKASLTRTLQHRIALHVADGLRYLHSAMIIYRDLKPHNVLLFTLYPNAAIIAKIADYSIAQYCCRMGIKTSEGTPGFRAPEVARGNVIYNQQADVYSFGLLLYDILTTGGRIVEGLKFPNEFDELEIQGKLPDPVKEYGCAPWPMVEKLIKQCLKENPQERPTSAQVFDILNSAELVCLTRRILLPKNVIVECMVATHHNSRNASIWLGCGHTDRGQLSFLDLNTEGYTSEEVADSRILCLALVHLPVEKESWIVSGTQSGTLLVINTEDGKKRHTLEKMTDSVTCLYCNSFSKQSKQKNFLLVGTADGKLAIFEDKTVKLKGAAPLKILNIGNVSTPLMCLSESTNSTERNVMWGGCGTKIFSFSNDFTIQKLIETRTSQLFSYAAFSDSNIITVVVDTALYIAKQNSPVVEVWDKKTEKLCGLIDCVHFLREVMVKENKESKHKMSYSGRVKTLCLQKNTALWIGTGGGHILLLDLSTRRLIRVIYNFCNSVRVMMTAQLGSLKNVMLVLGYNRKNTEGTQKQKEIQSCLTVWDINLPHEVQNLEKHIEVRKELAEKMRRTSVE

Compound `CCNc1nc(Nc2cn([C@H]3C[C@@H](C#N)C3)nc2C)ncc1C(F)(F)F` [Compound 35B] had a pIC50 of more than 7.52.
`CCNc1nc(Nc2cn(C3(C)CCOC3=O)nc2C)ncc1C(F)(F)F` (single isomer, unassigned) [Compound 125]: the negative-log IC50 (pIC50) was more than 7.52.
For `CCNc1nc(Nc2cn(C3CS(=O)(=O)C3)nc2C2CC2)ncc1C(F)(F)F` [Compound 110, N2-[3-cyclopropyl-1-(1,1-dioxothietan-3-yl)pyrazol-4-yl]-N4-ethyl-5-(trifluoromethyl)pyrimidine-2,4-diamine], the pIC50 was more than 7.52.
As to `[2H]C([2H])([2H])n1nc(C2(C)CCOC2=O)cc1Nc1ncc(C(F)(F)F)c(NC)n1` (centres unmarked) [Compound 176], the pIC50 was more than 7.52.
`CCNc1nc(Nc2cnn(C3CCCN(CC(F)F)C3)c2C)ncc1C(F)(F)F` (single isomer, unassigned) [Compound 92] had a pIC50 of more than 7.52.
The compound `CCNc1nc(Nc2cc([C@H]3C[C@@H]3C#N)nn2C2CC2)ncc1C(F)(F)F` [Compound 152] showed a pIC50 of more than 7.52.
`[2H]C([2H])([2H])n1nc(C(C)(C)n2nccn2)cc1Nc1ncc(Br)c(NCC)n1` [Compound 75] showed a pIC50 of more than 7.52.
`CCNc1nc(Nc2cnn3c2CC(C#N)C3)ncc1C(F)(F)F` (single isomer, unassigned) [Compound 52A] showed a negative-log IC50 (pIC50) of more than 7.52.
In turn, `[2H]C([2H])([2H])n1nc(C(C)(C)c2ncco2)cc1Nc1ncc(C(F)(F)F)c(NCC)n1` [Compound 82] gave a pIC50 of more than 7.52.
To `CCN1CCC(F)(F)C(n2ncc(Nc3ncc(C(F)(F)F)c(NC)n3)c2Cl)C1` (single isomer, unassigned) [Compound 203] belongs more than 7.52; to `CCNc1nc(Nc2cn(C3(C)CCOC3=O)nc2Cl)ncc1C(F)(F)F` (single isomer, unassigned) [Compound 117], more than 7.52.
`[2H]C([2H])([2H])N1CCC(n2cc(Nc3ncc(C(F)(F)F)c(NCC)n3)c(C)n2)C1=O` (centres unmarked) [Compound 25] gave a pIC50 of more than 7.52.
Take `CCNc1nc(Nc2cc(S(C)(=O)=O)nn2C2CC2)ncc1C(F)(F)F` [Compound 132]: the pIC50 is more than 7.52.
Regarding `[2H]C([2H])([2H])c1nn(C(C#N)(C([2H])([2H])[2H])C([2H])([2H])[2H])cc1Nc1ncc(C(F)(F)F)c(NC([2H])([2H])C([2H])([2H])[2H])n1` [Compound 74], the pIC50 is more than 7.52.
`CCNc1nc(Nc2cn(C3C[C@H]3C#N)nc2C2CC2)ncc1Br` (single isomer, unassigned) [Compound 215] showed a pIC50 of more than 7.52.
Compound `[2H]C([2H])([2H])Nc1nc(Nc2cn(C(C#N)(C([2H])([2H])[2H])C([2H])([2H])[2H])nc2C([2H])([2H])[2H])ncc1C(F)(F)F` [Compound 40] showed a pIC50 of more than 7.52.
`CNc1nc(Nc2cn(C3(C)CCOC3=O)nc2Cl)ncc1C(F)(F)F` (single isomer, unassigned) [Compound 123] had a negative-log IC50 (pIC50) of more than 7.52.
In turn, `CCNc1nc(Nc2cnn(C3CNCCC3(F)F)c2C)ncc1C(F)(F)F` (single isomer, unassigned) [Compound 201] gave a pIC50 of more than 7.52.
For `CCNc1nc(Nc2cc(C3(C)CCn4ccnc43)nn2C2CC2)ncc1C(F)(F)F` (centres unmarked) [Compound 166], the negative-log IC50 (pIC50) is less than 7.22.
Under `COc1nc(Nc2cn(Cc3cc[nH]n3)nc2C2CC2)ncc1Br` [Compound 95] stands more than 7.52; under `CCNc1nc(Nc2cnn(-c3cnccn3)c2C2CC2)ncc1C(F)(F)F` [Compound 105, N2-(5-cyclopropyl-1-pyrazin-2-yl-pyrazol-4-yl)-N4-ethyl-5-(trifluoromethyl)pyrimidine-2,4-diamine], more than 7.52; under `CNc1nc(Nc2cc(C(C)(C)n3nccn3)nn2C2CC2)ncc1C(F)(F)F` [Compound 77], more than 7.52.
As for `CCNc1nc(Nc2cc([C@H]3C[C@H]3C(=O)OCC)nn2C2CC2)ncc1C(F)(F)F` [Compound 169], the pIC50 is more than 7.52.
`CCNc1nc(Nc2cn(C3(C)CCOC3=O)nc2C)ncc1C(F)(F)F` (single isomer, unassigned) [Compound 100] had a pIC50 of more than 7.52.
Compound `CCNc1nc(Nc2cn(C3(CF)CCOC3=O)nc2C)ncc1C(F)(F)F` (single isomer, unassigned) [Compound 217] had a pIC50 of more than 7.52.
On to `CCNc1nc(Nc2cnn3c2CC(n2nccn2)C3)ncc1C(F)(F)F` (single isomer, unassigned) [Compound 54B], for which the pIC50 is more than 7.52.
To `Cc1nn(C(C)(C)C#N)cc1Nc1ncc(Br)c(NC2CC2)n1` [Compound 66] belongs more than 7.52.
For `CCNc1nc(Nc2cnn(C3CC(N4CCN(CC(F)F)CC4)C3)c2C)ncc1C(F)(F)F` (centres unmarked) [Compound 121], the pIC50 was more than 7.52.
Consider `CNc1nc(Nc2cnn3c2CC2(CC2)C3)ncc1C(F)(F)F` [Compound 8], for which the pIC50 was more than 7.52.
`CNc1nc(Nc2cn(C3(C)CCCC3=O)nc2C)ncc1C(F)(F)F` (centres unmarked) [Compound 195] showed a pIC50 of more than 7.52.
Consider `CCNc1nc(Nc2ccnn2[C@H]2C[C@@H](n3nccn3)C2)ncc1C(F)(F)F` [Compound 188], for which the pIC50 was 7.22 to 7.52.
`CCNc1nc(Nc2cnn(C3CCC3)c2C#N)ncc1C(F)(F)F` [Compound 32] had a pIC50 of more than 7.52.
Under `[2H]C([2H])([2H])n1cnc(C(C)(C)n2cc(Nc3ncc(Br)c(OC)n3)c(C)n2)n1` [Compound 33] stands more than 7.52.
`Cn1nc(C(C)(C)n2nccn2)cc1Nc1ncc(C(F)(F)F)c(NC2CC2)n1` [Compound 69] showed a pIC50 of more than 7.52.
Under `COc1nc(Nc2cn(C3(C)CCNC3=O)nc2C)ncc1Br` (single isomer, unassigned) [Compound 64B] stands more than 7.52; under `CCNc1nc(Nc2cn(Cc3ccon3)nc2C2CC2)ncc1C(F)(F)F` [Compound 94], more than 7.52.
Under `Cc1nn(C(C)(C)C#N)cc1Nc1ncc(C(F)(F)F)c(NC(CF)CF)n1` [Compound 76] stands more than 7.52; under `Cc1nn(C2(C)CCOC2=O)cc1Nc1ncc(C(F)(F)F)c(C2CC2)n1` (single isomer, unassigned) [Compound 103], more than 7.52; under `CCNc1nc(Nc2cc(C(C)(C)n3nccn3)nn2C2CCC2)ncc1C(F)(F)F` [Compound 127], more than 7.52.
For `CCNc1nc(Nc2cn(S(C)(=O)=O)nc2C2CC2)ncc1C(F)(F)F` [Compound 112], the pIC50 is more than 7.52.
`CNc1nc(Nc2cn(CC34CC(C#N)(C3)C4)nc2C)ncc1C(F)(F)F` [Compound 6] gave a pIC50 of less than 7.22.
To `CCNc1nc(Nc2cnn([C@H]3C[C@@H](C#N)C3)c2C)ncc1C(F)(F)F` [Compound 27] belongs > 7.52 and 8.47; to `Cc1nn(C(C)(C)C#N)cc1Nc1ncc(C(F)(F)F)c(NC2CC2)n1` [Compound 38], more than 7.52.
Under `CCNc1nc(Nc2cc([C@H]3C[C@H]3C(N)=O)nn2C2CC2)ncc1C(F)(F)F` [Compound 170] stands more than 7.52.
The compound `[2H]C([2H])([2H])n1nc(Nc2ncc(C(F)(F)F)c(NCC)n2)cc1C(C)(C)c1ncco1` [Compound 83] gave a pIC50 of more than 7.52.
To `CCNc1nc(Nc2cc(C#N)nn2C2CC2)ncc1C(F)(F)F` [Compound 133] belongs less than 7.22; to `CCNc1nc(Nc2cc(C(C)(C)n3nccn3)nn2C(C)C)ncc1C(F)(F)F` [Compound 86], more than 7.52.
In the case of `CCNc1nc(Nc2cc([C@@]34C[C@@H]3COC4=O)nn2C2CC2)ncc1C(F)(F)F` [Compound 162, (1R,5S)-1-[1-cyclopropyl-5-[[4-(ethylamino)-5-(trifluoromethyl)pyrimidin-2-yl]amino]pyrazol-3-yl]-3-oxabicyclo[3.1.0]hexan-2-one], the pIC50 was more than 7.52.
In the case of `CNc1nc(Nc2cn(C3C[C@@H]4C[C@@H]4C3)nc2C)ncc1C(F)(F)F` (some centres unmarked) [Compound 3], the pIC50 was more than 7.52.
Under `CCNc1nc(Nc2cc(C3(C)CCOC3=O)nn2C2CC2)ncc1Br` (centres unmarked) [Compound 151] stands more than 7.52; under `N#C[C@@H]1CC1n1cc(Nc2ncc(C(F)(F)F)c(NCC(F)F)n2)c(C2CC2)n1` (single isomer, unassigned) [Compound 211], more than 7.52.
Compound `CCNc1nc(Nc2cn(C3C[C@@H]3C#N)nc2Cl)ncc1C(F)(F)F` (single isomer, unassigned) [Compound 206] showed a pIC50 of more than 7.52.
Under `Cc1nn(C2(C)CCOC2=O)cc1Nc1ncc(C(F)(F)F)c(C2CC2)n1` (single isomer, unassigned) [Compound 120] stands more than 7.52.
The compound `CCNc1nc(Nc2cc(C(C)n3nccn3)nn2C2CC2)ncc1Br` (centres unmarked) [Compound 146] had a negative-log IC50 (pIC50) of more than 7.52.
`CCNc1nc(Nc2cnn(C3CN(CC)CCC3(F)F)c2Cl)ncc1C(F)(F)F` (single isomer, unassigned) [Compound 205] had a pIC50 of more than 7.52.
Consider `[2H]C([2H])([2H])c1nn(C(C#N)(C([2H])([2H])[2H])C([2H])([2H])[2H])cc1Nc1ncc(C(F)(F)F)c(NC)n1` [Compound 45], for which the pIC50 was more than 7.52.
In turn, `[2H]C([2H])([2H])n1nc(C2(C)CCCO2)cc1Nc1ncc(C(F)(F)F)c(NCC)n1` (centres unmarked) [Compound 186] had a pIC50 of more than 7.52.
`CNc1nc(Nc2cc([C@@]34C[C@@H]3COC4=O)nn2C2CC2)ncc1C(F)(F)F` [Compound 163] gave a pIC50 of more than 7.52.
`CCNc1nc(Nc2cc(C(C)n3nccn3)nn2C2CC2)ncc1C(F)(F)F` (centres unmarked) [Compound 137] had a pIC50 of more than 7.52.
